Experimental data published in publication PMC12707346, “Discovery and validation of small molecule stabilizers of mutant triose phosphate isomerase (TPI) as potential lead candidates for TPI deficiency” (SLAS discovery : advancing life sciences R & D, 2025).
Entries after “also recorded” stand apart in the source; their conditions may differ. Like-named read-outs stand apart in the source and are kept apart here.

Assay: Tissue distribution study in mice, 20 mg/kg i.p.
Type: in vivo, C57BL/6 J mice
Conditions: mouse; for concentration at 1 h / concentration at 2 h / concentration at 4 h / concentration at 8 h / concentration at 0.5 h / Kp at 1 h / Kp at 2 h / Kp at 4 h / Kp at 8 h / Kp at 0.5 h: male, IP 20 mg/kg; for concentration at 1 h / concentration at 2 h / concentration at 4 h / concentration at 8 h / concentration at 0.5 h: ip; for Kp at 1 h / Kp at 2 h / Kp at 4 h / Kp at 8 h / Kp at 0.5 h: read-out: Mean Tissue/ Plasma Conc Ratio
Method: Male C57BL/6 J (Jackson Laboratories) wild type mice (age: 40–60 days) weighing 25–30 g, were used for the tissue distribution study. Mice were randomly assigned in two groups: blank (n = 1) and treatment. The treatment group received 20 mg/kg compound 424 intraperitoneally (n = 15; 3 animals per time point i.e., 0.5, 1, 2, 4, and 8 h). Molport 002–877–424 was formulated in a vehicle consisting of 20 % DMSO, 50 % PEG300, and 30 % sterile water. At each time point animals were euthanized via isoflurane overdose. Blood was collected in ETDA-coated tubes at each time points and centrifuged at 15,000 x g for 5 min. The separated plasma was stored at −80 °C. Following blood collection, liver, kidney, skeletal muscle and brain were isolated, rinsed in normal saline and approximately 100 mg of tissues were snap-frozen and stored at −80 °C. All plasma and tissue samples were shipped on dry ice to Touchstone Biosciences for further analysis. Sample preparation and analysis was performed at Touchstone Biosciences exactly as described in [20].

[1] = C57BL/6 J, kidney, 20 mg/kg, Kidney, read-out: Mean Tissue
[2] = C57BL/6J, liver homogenate, 20 mg/kg, Liver, read-out: Mean Plasma or Tissue Homogenate Conc
[3] = C57BL/6J, liver homogenate, 20 mg/kg, Liver, read-out: Plasma or Tissue Homogenate Conc (individual animals)
[4] = C57BL/6J, liver, 20 mg/kg, Liver, read-out: Mean Tissue
[5] = C57BL/6J, muscle homogenate, 20 mg/kg, Muscle, read-out: Mean Plasma or Tissue Homogenate Conc
[6] = C57BL/6J, muscle homogenate, 20 mg/kg, Muscle, read-out: Plasma or Tissue Homogenate Conc (individual animals)
[7] = C57BL/6J, muscle, 20 mg/kg, Muscle, read-out: Mean Tissue
[8] = C57BL/6 J, plasma, 20 mg/kg, Plasma, read-out: Mean Plasma or Tissue Homogenate Conc
[9] = C57BL/6 J, plasma, 20 mg/kg, Plasma, read-out: Plasma or Tissue Homogenate Conc (individual animals)
[10] = C57BL/6J, muscle/plasma, Muscle

SMILES: c1ccc(-c2nnc(-c3ccccn3)nc2NC2CCCCC2)cc1 [MolPort-002-877-424, C1CCC(CC1)Nc2nc(nnc2c3ccccc3)c4ccccn4]
- concentration at 1 h [1]: 8510 ng/g
- concentration at 2 h [1]: 4070 ng/g
- concentration at 4 h [1]: 1760 ng/g
- concentration at 8 h [1]: 784 ng/g
- concentration at 0.5 h [2]: 3600 ng/mL
- concentration at 0.5 h [3]: 4280 ng/mL
- concentration at 1 h [2]: 3030 ng/mL
- concentration at 1 h [3]: 2450 ng/mL
- concentration at 2 h [2]: 1570 ng/mL
- concentration at 2 h [3]: 1370 ng/mL
- concentration at 4 h [2]: 687 ng/mL
- concentration at 4 h [3]: 539 ng/mL
- concentration at 8 h [2]: 273 ng/mL
- concentration at 8 h [3]: 205 ng/mL
- concentration at 0.5 h [4]: 14400 ng/g
- concentration at 1 h [4]: 12100 ng/g
- concentration at 2 h [4]: 6270 ng/g
- concentration at 4 h [4]: 2750 ng/g
- concentration at 8 h [4]: 1090 ng/g
- concentration at 0.5 h (C57BL/6 J, muscle homogenate, 20 mg/kg, Muscle, read-out: Mean Plasma or Tissue Homogenate Conc): 516 ng/mL
- concentration at 0.5 h (C57BL/6 J, muscle homogenate, 20 mg/kg, Muscle, read-out: Plasma or Tissue Homogenate Conc (individual animals)): 443 ng/mL
- concentration at 1 h [5]: 390 ng/mL
- concentration at 1 h [6]: 336 ng/mL
- concentration at 2 h [5]: 192 ng/mL
- concentration at 2 h [6]: 152 ng/mL
- concentration at 4 h [5]: 83.3 ng/mL
- concentration at 4 h [6]: 63.6 ng/mL
- concentration at 8 h [5]: 33.1 ng/mL
- concentration at 8 h [6]: 26.1 ng/mL
- concentration at 0.5 h (C57BL/6 J, muscle, 20 mg/kg, Muscle, read-out: Mean Tissue): 2060 ng/g
- concentration at 1 h [7]: 1560 ng/g
- concentration at 2 h [7]: 768 ng/g
- concentration at 4 h [7]: 333 ng/g
- concentration at 8 h [7]: 132 ng/g
- concentration at 0.5 h [8]: 10500 ng/mL
- concentration at 0.5 h [9]: 12300 ng/mL
- concentration at 1 h [8]: 9150 ng/mL
- concentration at 1 h [9]: 7700 ng/mL
- concentration at 2 h [8]: 4810 ng/mL
- concentration at 2 h [9]: 5560 ng/mL
- concentration at 4 h [8]: 2190 ng/mL
- concentration at 4 h [9]: 1930 ng/mL
- concentration at 8 h [8]: 1030 ng/mL
- concentration at 8 h [9]: 868 ng/mL
- Kp at 1 h [10]: 0.17
- Kp at 2 h [10]: 0.16
- Kp at 4 h [10]: 0.152
- Kp at 8 h [10]: 0.128
- Kp at 0.5 h (C57BL/6 J, Brain): 0.134
- Kp at 1 h (C57BL/6 J, Brain): 0.12
- Kp at 2 h (C57BL/6 J, Brain): 0.113
- Kp at 4 h (C57BL/6 J, Brain): 0.105
- Kp at 8 h (C57BL/6 J, Brain): 0.086
- Kp at 1 h (C57BL/6 J, Kidney): 0.929
- Kp at 2 h (C57BL/6 J, Kidney): 0.846
- Kp at 4 h (C57BL/6 J, Kidney): 0.801
- Kp at 8 h (C57BL/6 J, Kidney): 0.758
- Kp at 0.5 h (C57BL/6 J, Muscle): 0.197
- levels in muscle (20 mg/kg i.p.): 1 to 1.6 µM
- tissue distribution (20 mg/kg i.p., 20 mg/kg): accumulated preferentially in liver and kidney; also recorded: moderately brain-penetrant
